Test results: patent publication EP1401829B1, “NOVEL HETEROCYCLIC ANTIBACTERIAL COMPOUNDS” (Microbiotix, Inc., priority 2001, dated 2002)
Values after ≈ are worked out from the molar mass of the structure shown.

What was measured:
[1] = target: T1, B. subtilis Pol IIIC (Bacillus subtilis, UniProt P13267); assay: Polymerase IIIC (Pol IIIC) assay, determination of Ki values; type: biochemical; conditions: Ki (µM) Pol IIIC, assay in absence of dGTP or dATP; Ki is the concentration that reduces control polymerase IIIC activity by 50 percent
T1 construct: made in house
T1 sequence (P13267 whole entry): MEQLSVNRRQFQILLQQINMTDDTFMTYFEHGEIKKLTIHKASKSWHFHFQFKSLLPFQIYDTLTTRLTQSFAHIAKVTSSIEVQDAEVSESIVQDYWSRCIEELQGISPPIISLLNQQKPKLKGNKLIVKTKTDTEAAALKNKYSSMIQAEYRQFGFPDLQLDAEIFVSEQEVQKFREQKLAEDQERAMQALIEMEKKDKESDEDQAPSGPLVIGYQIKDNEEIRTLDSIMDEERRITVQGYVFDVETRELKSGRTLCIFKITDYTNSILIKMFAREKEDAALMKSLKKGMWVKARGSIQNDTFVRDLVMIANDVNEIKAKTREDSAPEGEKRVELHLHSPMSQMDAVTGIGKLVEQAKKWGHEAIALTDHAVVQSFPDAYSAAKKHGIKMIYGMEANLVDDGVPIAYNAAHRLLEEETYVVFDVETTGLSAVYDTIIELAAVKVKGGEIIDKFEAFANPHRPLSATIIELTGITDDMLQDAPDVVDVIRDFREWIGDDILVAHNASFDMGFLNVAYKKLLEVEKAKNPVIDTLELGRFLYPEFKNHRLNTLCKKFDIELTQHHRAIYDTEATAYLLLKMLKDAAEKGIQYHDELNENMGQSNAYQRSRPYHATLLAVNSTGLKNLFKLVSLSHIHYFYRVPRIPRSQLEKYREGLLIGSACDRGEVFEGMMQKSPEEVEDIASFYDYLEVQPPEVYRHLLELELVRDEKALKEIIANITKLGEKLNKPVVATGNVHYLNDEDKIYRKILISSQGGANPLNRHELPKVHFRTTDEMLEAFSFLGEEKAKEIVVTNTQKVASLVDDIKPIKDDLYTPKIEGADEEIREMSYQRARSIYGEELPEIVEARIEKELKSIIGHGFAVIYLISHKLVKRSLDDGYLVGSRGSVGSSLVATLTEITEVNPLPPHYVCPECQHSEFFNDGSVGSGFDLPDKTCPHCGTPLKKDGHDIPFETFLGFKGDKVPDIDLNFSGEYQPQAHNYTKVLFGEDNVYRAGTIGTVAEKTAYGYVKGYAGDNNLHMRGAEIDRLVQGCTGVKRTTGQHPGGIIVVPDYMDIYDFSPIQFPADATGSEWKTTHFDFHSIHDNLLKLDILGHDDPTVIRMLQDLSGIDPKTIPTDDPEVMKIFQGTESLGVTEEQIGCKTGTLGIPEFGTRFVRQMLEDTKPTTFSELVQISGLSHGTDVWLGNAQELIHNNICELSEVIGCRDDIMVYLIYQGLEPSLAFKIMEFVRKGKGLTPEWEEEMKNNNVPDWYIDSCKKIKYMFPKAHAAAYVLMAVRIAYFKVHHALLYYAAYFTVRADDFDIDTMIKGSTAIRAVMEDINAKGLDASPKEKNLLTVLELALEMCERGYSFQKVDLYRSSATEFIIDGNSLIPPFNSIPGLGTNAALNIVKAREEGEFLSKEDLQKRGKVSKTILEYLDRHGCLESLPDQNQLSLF
How it was run: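 Isolated B. subtilis Pol IIIC (0.025–0.06 units) run 10 min at 30°C in 30 mM Tris pH 7.5, 10 mM Mg acetate, 4 mM DTT, 20% glycerol. Substrates were 0.4 mg/ml activated calf thymus DNA, 25 µM dNTPs and 10 µM [3H]dTTP, with dGTP or dATP omitted per compound structure.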

[2] = test system: B. subtilis; assay: Minimal Inhibitory Concentration (MIC) determination, 96 well plates; type: cell-based, Bacillus subtilis; conditions: Bacillus subtilis; HBI medium, 16 to 18 hours at 37°C; read-out: MIC (µg/ml) B. subtilis
How it was run: (§1)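 Broth growth in Heart-Brain Infusion medium, seeded at about 1x10^5 CFU/ml, 16 to 18 hours at 37°C. Growth read at OD 600 nm as percent of untreated control; five concentrations per drug, five data points each, MIC reported in µg/ml.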

[3] = test system: E. fecalis; assay: as above; type: cell-based, Enterococcus fecalis; conditions: Enterococcus; HBI medium, 16 to 18 hours at 37°C; read-out: MIC (µg/ml) E. fecalis
How it was run: as §1

[4] = test system: E. fecium; assay: as above; type: cell-based, Enterococcus fecium; conditions: Enterococcus; HBI medium, 16 to 18 hours at 37°C; read-out: MIC (µg/ml) E. fecium
How it was run: as §1

[5] = test system: E. coli; assay: as above; type: cell-based, Escherichia coli; conditions: Escherichia coli; HBI medium, 16 to 18 hours at 37°C; read-out: MIC (µg/ml) E. coli
How it was run: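 Cultures seeded at approximately 1x10^5 CFU/ml in Heart-Brain Infusion medium were exposed to five compound concentrations, five data points each, for 16 to 18 hours at 37°C. Growth at OD 600 nm was expressed as percent of control, and MIC values are given in µg/ml.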

| Compound | Ki [1] [µM] | MIC [2] [µg/mL] | MIC [3] [µg/mL] | MIC [4] [µg/mL] | MIC [5] [µg/mL] |
| --- | --- | --- | --- | --- | --- |
| CCc1cc(Nc2cc(=O)n(CCCCN3CCN(c4c(F)cc5c(=O)c(C(=O)O)cn(C6CC6)c5c4F)CC3C)c(=O)[nH]2)ccc1C (stereo not drawn) [Compound 70, 3-{4-[1-(1-cyclopropyl-3-carboxy-4-oxo-6,8-difluoro-7-quinolyl)-3-methyl-4-piperazinyl]butyl}-6-(3-ethyl-4-methylanilino)uracil] | 0.019 | 0.156 (≈ 0.235 µM) | 0.95 (≈ 1.43 µM) | 1.25 (≈ 1.89 µM) | > 80 |
| CCc1cc(Nc2cc(=O)n(CCCCN3CCN(c4cc5c(cc4F)c(=O)c(C(=O)O)cn5C4CC4)CC3)c(=O)[nH]2)ccc1C [Compound 2, 3-{4-[1-(1-cyclopropyl-3-carboxy-4-oxo-6-fluoro-7-quinolyl)-4-piperazinyl]butyl}-6-(3-ethyl-4-methylanilino)uracil] | 0.024 | 0.156 (≈ 0.247 µM) | 1.25 (≈ 1.98 µM) | 1.25 (≈ 1.98 µM) | 2.5 (≈ 3.96 µM) |
| CCc1cc(Nc2cc(=O)n(CCCCN3CCN(c4cc5c(cc4F)c(=O)c(C(=O)O)cn5C4CC4)CC3)c(=O)[nH]2)ccc1C.CS(=O)(=O)O [Compound 10, 3-{4-[1-(1-cyclopropyl-3-carboxy-4-oxo-6-fluoro-7-quinolyl)-4-piperazinyl]butyl}-6-(3-ethyl-4-methylanilino)uracil methanesulfonate] | 0.018 | 0.313 | 1.25 | 2.5 | 5 |
